The values below come from patent US6600069B2, “Benzene tricarboxylic acid derivatives as insulin receptor activators” (Telik, Inc., priority 2000, dated 2003).

Molecules are shown by their SMILES.

Assay [1] has as its target T1, β-kinase domain of the human insulin receptor (CKD) (Homo sapiens, UniProt P06213).
T1 construct: The complete β-kinase domain of the human insulin receptor (CKD); made in house
Kind of assay: 32P-cytoplasmic kinase domain (CKD) autophosphorylation assay. The class given is biochemical. Conditions: 32P incorporated into CKD band, 10 minutes at room temperature, 50 μM ATP; test concentration not given. The method, then: ^32P-cytoplasmic Kinase Domain (CKD) Autophosphorylation Assay
The complete β-kinase domain of the human insulin receptor (CKD) was expressed in, and purified from, baculovirus. CKD (4.0 μg/ml), in a solution of 29 mM HEPES (pH 7.6), 0.05% Triton X-100, 10 mM MgCl2, 2 mM MnCl2 (50 μl final volume), was combined with 50 μM ATP, and 5 μCi ^32P-ATP (3000 Ci/mmol.). A test compound, or the vehicle (DMSO), was added to a final DMSO concentration of 1%. The mixture was incubated for 10 minutes at room temperature. The reaction was terminated by the addition of 10 μl of 200 mM EDTA. A 30 μl volume was removed, mixed with 5 μl of 6× Laemmeli sodium dodecyl sulfate (SDS) treatment buffer, and heated to 95° C. for 5 minutes. A 20 μl aliquot was then run on an SDS-PAGE gel. The radioactivity incorporated into the CKD band is quantified by phosphorimaging of the gel, or scintillation counting of the excised bands.
The potency of a compound for increasing phosphorylation is expressed as a percentage of the vehicle level.

In assay [2] the test system is 3T3 L1 fibroblasts differentiated to adipocytes. Kind of assay: Glucose transport activity (14C-2-deoxy-D-glucose uptake). It counts as cell-based. The note with it: Mus musculus, 3T3-L1; concentration producing increase in glucose transport generally 150% of the vehicle control; insulin 5.6 nM; read-out: Glucose Transport EC (effective concentration). The method, then:
Glucose Transport Activity
3T3 L1 fibroblasts (ATCC) were grown in Dulbecco's modified Eagie's medium (DMEM) with 10% fetal bovine serum (FBS). The cells were plated at a density of 3×10^4 cells/well in 24-well plates. Two days after confluence was reached, the cells were treated for 3 days with […] isobutylmethylxanthine (IBMX), 1 μM dexamethasone, and 1.7 μM insulin. The cells were then transferred to DMEM with 10% fresh bovine serum with 1.7 μM insulin for 2 more days. The cells were maintained in DMEM with 10% FBS for an additional 4 days. Finally the cells were serum starved overnight in 0.1% bovine serum albumin (BSA) in DMEM prior to exposure to the test compounds.
The following day, the medium was replaced with 150 mM NaCl, 1.7 mM KCl, 0.9 mM CaCl2, K2HPO4 (pH 7.4) to which was added either the experimental compounds, or their vehicle (DMSO). Insulin or its vehicle (0.01% BSA) was diluted in the assay buffer (containing test compound or vehicle, respectively) to a final concentration of 5.6 nM. After incubation for 30 min at 37° C., 0.5 μCi/ml of ^14C-2-deoxy-D-glucose was added, and the incubation was continued for additional 30 min at 37° C. The cells were then washed 3 times with ice-cold PBS/20 mM glucose and lysed in 250 μl of lysis buffer (50 mM HEPES pH 7.6, 1% Triton X-100) for 30 min at room temperature. Radioactivity in the lysate was quantified by scintillation counting.
Once ^14C-2-deoxy-D-glucose is transported into the cell it is not released. Glucose transport is, therefore, proportional to the amount of radioactivity in the lysate. The concentration of compound necessary to produce an increase in glucose transport greater than the sum of the standard deviation of the vehicle control plus the largest standard deviation of a test sample (generally 150% of the vehicle control) was recorded as the EC (effective concentration) The results of the glucose transport activity assay are shown in Table 2,

T1 sequence (P06213 980-1382 limits assumed): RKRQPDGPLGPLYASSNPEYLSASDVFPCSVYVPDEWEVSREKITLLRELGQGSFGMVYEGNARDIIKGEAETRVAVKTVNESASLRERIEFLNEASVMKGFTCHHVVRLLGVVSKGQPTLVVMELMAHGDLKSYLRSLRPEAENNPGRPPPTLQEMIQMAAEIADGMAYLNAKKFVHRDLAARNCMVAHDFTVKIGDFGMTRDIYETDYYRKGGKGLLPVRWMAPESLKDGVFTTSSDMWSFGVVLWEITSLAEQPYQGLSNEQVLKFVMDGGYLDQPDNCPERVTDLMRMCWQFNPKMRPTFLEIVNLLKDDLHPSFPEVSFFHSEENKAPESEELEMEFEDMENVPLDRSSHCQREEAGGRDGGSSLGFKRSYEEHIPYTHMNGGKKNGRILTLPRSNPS

Take `COC(=O)c1ccc(NC(=O)c2cc(C(=O)Nc3ccc(C(=O)OC)cc3)cc(C(=O)Nc3ccc(C(=O)OC)cc3)c2)cc1` [Compound 20, methyl 4-[(3,5-bis{N-[4-(methoxycarbonyl)phenyl]carbamoyl}phenyl)carbonyl-amino]benzoate]: the “CKD phosphorylation (percentage of the vehicle level)” value in assay [1] was found to be 77.4%. Besides, in assay [2], the EC50 amounted to 3.2 µM.

As for `O=C(O)c1cc(NC(=O)c2cc(C(=O)Nc3cc(C(=O)O)cc(C(=O)O)c3)cc(C(=O)Nc3cc(C(=O)O)cc(C(=O)O)c3)c2)cc(C(=O)O)c1` [Compound 21, 5-({3,5-bis[N-(3,5-dicarboxyphenyl)carbamoyl]phenyl}carbonylamino)benzene-1,3-dicarboxylic acid], the “CKD phosphorylation (percentage of the vehicle level)” value in assay [1] is listed as 97.8%. In addition, in assay [2], the EC50 came to 3.2 µM.

`O=C(Nc1cccc(C(=O)O)c1C(=O)O)c1cc(C(=O)Nc2cccc(C(=O)O)c2C(=O)O)cc(C(=O)Nc2cccc(C(=O)O)c2C(=O)O)c1` [Compound 22, 3-({3,5-bis[N-(2,3-dicarboxyphenyl)carbamoyl]phenyl}carbonylamino)benzene-1,2-dicarboxylic acid]: in assay [1], the “CKD phosphorylation (percentage of the vehicle level)” value was determined as 118.1%. The EC50 in assay [2] was determined as 3.2 µM.

For `COC(=O)c1ccccc1NC(=O)c1cc(C(=O)Nc2ccccc2C(=O)OC)cc(C(=O)Nc2ccccc2C(=O)OC)c1` [Compound 23, methyl 2-[(3,5-bis{N-[2-(methoxycarbonyl)phenyl]carbamoyl}phenyl)carbonyl-amino]benzoate], in assay [1], the “CKD phosphorylation (percentage of the vehicle level)” value is reported as 87.4%. Also, the EC50 in assay [2] stood at 1.6 µM.
